According to publication PMC3501507, “A Metal-Based Inhibitor of NEDD8-Activating Enzyme” (PLoS ONE, 2012):

These compounds were tested against T1, NEDD8-activating enzyme (NAE) (Homo sapiens, UniProt Q8TBC4) (assay: cell-free Ubc12-NEDD8 conjugation assay, western blot).
T1 construct: gene UBA3; recombinant human NAE (APPBP1/UBA3 heterodimer); with APPBP1 (NAE1)
T1 sequence (Q8TBC4 2-463): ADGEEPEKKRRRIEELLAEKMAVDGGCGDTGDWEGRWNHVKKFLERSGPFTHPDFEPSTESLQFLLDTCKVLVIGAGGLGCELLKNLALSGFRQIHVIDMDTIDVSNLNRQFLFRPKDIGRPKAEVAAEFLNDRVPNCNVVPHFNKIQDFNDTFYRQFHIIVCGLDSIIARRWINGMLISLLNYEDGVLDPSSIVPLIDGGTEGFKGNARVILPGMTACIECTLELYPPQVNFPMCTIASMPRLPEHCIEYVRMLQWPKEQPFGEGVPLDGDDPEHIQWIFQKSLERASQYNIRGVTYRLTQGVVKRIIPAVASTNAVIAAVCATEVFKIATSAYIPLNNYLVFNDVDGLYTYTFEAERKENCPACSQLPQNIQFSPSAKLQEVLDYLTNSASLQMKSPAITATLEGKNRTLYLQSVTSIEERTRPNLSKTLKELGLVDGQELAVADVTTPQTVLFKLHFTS
T1 sequence (Q13564 2-534 partner): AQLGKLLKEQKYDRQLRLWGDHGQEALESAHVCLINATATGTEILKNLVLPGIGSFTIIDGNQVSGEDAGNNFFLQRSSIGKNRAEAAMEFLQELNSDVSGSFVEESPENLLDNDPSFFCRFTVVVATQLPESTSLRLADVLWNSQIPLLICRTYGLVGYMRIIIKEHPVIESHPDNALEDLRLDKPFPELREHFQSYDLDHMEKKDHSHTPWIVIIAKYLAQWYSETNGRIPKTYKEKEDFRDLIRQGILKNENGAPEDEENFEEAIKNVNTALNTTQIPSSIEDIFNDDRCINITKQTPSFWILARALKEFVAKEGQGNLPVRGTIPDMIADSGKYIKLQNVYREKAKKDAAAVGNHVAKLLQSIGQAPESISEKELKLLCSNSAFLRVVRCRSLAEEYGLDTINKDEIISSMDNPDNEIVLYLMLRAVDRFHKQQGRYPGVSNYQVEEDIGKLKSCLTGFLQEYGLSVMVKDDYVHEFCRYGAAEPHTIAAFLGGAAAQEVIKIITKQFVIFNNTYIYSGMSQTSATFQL
Assay type: biochemical
O=Cc1ccc2[c](c1)[Rh-3]13([c]4cc(C=O)ccc4-c4cccc[n+]41)([n+]1ccccc1-2)[n+]1cccc2c4nc5ccc([N+](=O)[O-])cc5nc4c4ccc[n+]3c4c21 [compound 4, complex 4] was tested, and the IC50 was about 13 µM. c1cc[c]2c(c1)-c1cccc[n+]1[Rh-3]213([c]2ccccc2-c2cccc[n+]21)[n+]1cccc2c4nc5ccccc5nc4c4ccc[n+]3c4c21 [compound 1, [Rh(ppy)2(dppz)]^+] was tested, and the IC50 was about 1.5 µM. Work on Cc1cc2nc3c4ccc[n+]5c4c4c(ccc[n+]4[Rh-3]546([c]5ccccc5-c5cccc[n+]54)[c]4ccccc4-c4cccc[n+]46)c3nc2cc1C [compound 2, complex 2] yielded an IC50 of about 6.25 µM. In the case of Cc1cc2nc3c4ccc[n+]5c4c4c(ccc[n+]4[Rh-3]546([c]5cc(C=O)ccc5-c5cccc[n+]54)[c]4cc(C=O)ccc4-c4cccc[n+]46)c3nc2cc1C [compound 3, complex 3], the IC50 is reported as about 6.25 µM.
